For orientation: Kd means a measure of binding affinity in units of concentration.

Experiment [1] deals with TurtOBP1. Briefly: fluorescent probe titration (blue shift) with purified recombinant protein. It is filed as binding, Tetranychus urticae.
Experiment [2] concerns the target TurtOBP4. Described as above. The format is binding, Tetranychus urticae.
Experiment [3] addresses TurtOBP1. Briefly: competitive fluorescence binding assay, displacement of 1-NPN. Further details: species or system Tetranychus urticae.
Experiment [4] has as its target TurtOBP4. The description is as above. Further details: species or system Tetranychus urticae.

`c1ccc(Nc2cccc3ccccc23)cc1` [1-NPN]: the Kd at TurtOBP1 [1] was found to be 9.7 µM; on TurtOBP4 [2], 3.5 µM.

In the case of `COc1cc(/C=C/C=O)ccc1O` [coniferyl aldehyde], the Kd on TurtOBP1 [3] was found to be 9.8 µM; at TurtOBP4 [4] it was 6.4 µM.

For the origin of these results see paper PMC8269058, “The Odorant-Binding Proteins of the Spider Mite Tetranychus urticae” (International Journal of Molecular Sciences, 2021).
